For 7 molecules, Activity and IC50 results are on record in ChEMBL document CHEMBL1157633, “Prediction and evaluation of protein farnesyltransferase inhibition by commercial drugs” (J Med Chem, 2010).

Molecules are shown by their SMILES. Calls of active or inactive are those of the source. The rule behind the calls is not given here.

Series [1] is described as follows: Blockade of protein farnesyltransferase at 100 uM by aggregate-based inhibition assay.
Series [2] is described as follows: Inhibition of protein farnesyltransferase by continuous fluorescence assay.
For series [3], the system named is MDCK. Kind of series: Inhibition of protein farnesyltransferase-mediated farnesylation of GFP-tagged H-Ras protein overexpressed in MDCK cells assessed as inhibition of protein localization into golgi and plasma membrane at 25 uM after 24 hrs by Hoechst 34580 staining-based confocal microscopy. The class given is cell-based.
Series [4] in a line: Blockade of protein farnesyltransferase by aggregate-based inhibition assay.
In series [5] the test system is MDCK. The series can be described thus: Cytotoxicity against MDCK cells at >10 uM. The following applies: dog. Type of series: cell-based, Canis lupus familiaris.
Series [6] deals with MDCK. The series can be described thus: Inhibition of protein farnesyltransferase-mediated farnesylation of GFP-tagged H-Ras protein overexpressed in MDCK cells assessed as inhibition of protein localization into golgi and plasma membrane at 10 uM after 48 hrs by Hoechst 34580 staining-based confocal microscopy. The class given is cell-based.

Take `Clc1ccccc1C(c1ccccc1)(c1ccccc1)n1ccnc1`: the outcome in series [1] was inactive.
`Cc1cncc(CN2CCC(=C3c4ccc(Cl)cc4CCc4cccnc43)CC2)c1` [RUPATADINE] came in with an IC50 in series [2] of 76 µM.
For the molecule `CCOC(=O)N1CCC(=C2c3ccc(Cl)cc3CCc3cccnc32)CC1` [LORATADINE], the IC50 in series [2] came out at 13.3 µM. Besides, the outcome in series [3] was inactive.
Turning to `O=C1OC(c2ccc(O)cc2)(c2ccc(O)cc2)c2c(I)c(I)c(I)c(I)c21`, in series [4], the outcome was inactive.
As for `Clc1ccc(COC(Cn2ccnc2)c2ccc(Cl)cc2Cl)cc1` (stereo not given), the result in series [4] was Active.
In the case of `Clc1ccc(COC(Cn2ccnc2)c2ccc(Cl)cc2Cl)c(Cl)c1` (stereo not given) [MICONAZOLE], the Activity result in series [5] is recorded as “Toxic”. Further, the outcome in series [6] and in series [4] was Active.
The molecule `CC(C)C[C@H](NC(=O)[C@@H](O)[C@H](N)Cc1ccccc1)C(=O)O` [UBENIMEX] gave an IC50 in series [2] of over 200 µM.
